According to US4795812A, “4-substituted-6-aryl-pyrimidine compounds” (The Upjohn Company, priority 1986, dated 1989):
Converted amounts (≈) assume the structure as drawn. Read-outs that look alike come from different tables or passages of the source.

Columns and labels:
[1] = test system: L-1210 mouse leukemia cells; test: L-1210 tube dilution assay, inhibition of mouse leukemia cell growth in vitro; assay type: cell-based; conditions: for inhibition of growth of L-1210 cells (in words): in vitro; for IC50 / IC90: Mus musculus
Excerpt: ID50 and ID90 refer to the concentration of compound needed to inhibit cell growth by 50 and 90 percent, respectively.

P. vulgaris = test: In vitro disk plate assay, Proteus vulgaris; assay type: cell-based
Description: (§1) The antibacterial spectrum of 4-(1-azindinyl)-6-phenyl-2-pyrimidinamine was determined in an in vitro disk plate assay. The assay procedure is as follows:
(§2) A solution of 4-(1-aziridinyl)-6-phenyl-2-pyrimidinamine was prepared at 1 mg/ml in distilled water. Paper assay disks (1/2 inch) were dripped into the solution and spotted on seeded agar trays.

test organisms = test: In vitro disk plate assay, test organisms other than Proteus vulgaris; assay type: cell-based
Description: as §1, §2

P388 leukemia = test: In vivo P-388 mouse leukemia test (i.p.); conditions: for % ILS (% increase in life span of treated compared to control animals) / Weight Change: daily × 9, i.p.; for % ILS (% increase in life span of treated compared to control animals): Klucel suspension; for Weight Change: between days 1 and 5 after tumor inoculation
Excerpt: (§3) The P-388 mouse leukemia test is described in detail in a publication by G. L. Neil, et al, Cancer Treatment Reports 63, 1971-1978 (1979).
(§4) ^a mg/kg/day, daily × 9, i.p., administered as a Klucel
(§5) ^b % increase in life span of treated compared to control animals.
(§6) ^c g/mouse between days 1 and 5 after tumor inoculation.
(§7) The NCI-designated criteria of significant activity for synthetic agents in these 3 systems are: for P388, 20% ILS; L1210 and B16, 25% ILS.

L-1210 leukemia = test: In vivo L-1210 leukemia test in mice (i.p.); design: species or system mouse; conditions: for % ILS (% increase in life span of treated compared to control animals) / Weight Change: i.p.-L1210, daily × 9, i.p.; for % ILS (% increase in life span of treated compared to control animals): Klucel suspension; for Weight Change: between days 1 and 5 after tumor inoculation
Excerpt: as §3, §4, §5, §6, §7

B-16 melanoma = test: In vivo B-16 melanoma test in mice (i.p.); design: species or system mouse; conditions: for % ILS (% increase in life span of treated compared to control animals) / Weight Change: i.p.-B16, daily × 9, i.p.; for % ILS (% increase in life span of treated compared to control animals): Klucel suspension; for Weight Change: between days 1 and 5 after tumor inoculation
Excerpt: as §3, §4, §5, §6, §7

E. coli = test: In vitro disk plate assay, E. coli; assay type: cell-based; conditions: 1 mg/ml in distilled water, 1/2 inch disk, 18 hours
Description: as §1, §2

S. schottmuelleri = test: In vitro disk plate assay, S. schottmuelleri; assay type: cell-based; conditions: medium B (Nutrient Agar); 1 mg/ml in distilled water, 1/2 inch disk, 18 hours
Description: as §1, §2

B. fragilis = test: In vitro disk plate assay, B. fragilis; assay type: cell-based; conditions: medium H (Schaedler Agar); 1 mg/ml in distilled water, 1/2 inch disk, 18 hours
Description: as §1, §2

S. lutea = test: In vitro disk plate assay, S. lutea; assay type: cell-based; conditions: 1 mg/ml in distilled water, 1/2 inch disk, 18 hours
Description: as §1, §2

S. pastorianus = test: In vitro disk plate assay, S. pastorianus; assay type: cell-based; conditions: medium G (Gray's Medium); 1 mg/ml in distilled water, 1/2 inch disk, 18 hours
Description: as §1, §2

Ps. aeruginosa = test: In vitro disk plate assay, Ps. aeruginosa; assay type: cell-based; conditions: medium B (Nutrient Agar); 1 mg/ml in distilled water, 1/2 inch disk, 18 hours
Description: as §1, §2

S. aureus = test: In vitro disk plate assay, S. aureus; assay type: cell-based; conditions: medium B (Nutrient Agar); 1 mg/ml in distilled water, 1/2 inch disk, 18 hours
Description: as §1, §2

[2] = test system: Rhodopseudomonas spheroides; test: In vitro disk plate assay, Rhodopseudomonas spheroides; assay type: cell-based; conditions: medium F (Plate Count Medium); 1 mg/ml in distilled water, 1/2 inch disk, 18 hours
Description: as §1, §2

K. pneumoniae = test: In vitro disk plate assay, K. pneumoniae; assay type: cell-based; conditions: medium A (Streptomycin Assay Agar); 1 mg/ml in distilled water, 1/2 inch disk, 18 hours
Description: as §1, §2

S. pyogenes = test: In vitro disk plate assay, S. pyogenes; assay type: cell-based, Streptococcus pyogenes; conditions: medium D (Brain Heart Infusion Agar); 1 mg/ml in distilled water, 1/2 inch disk, 18 hours
Description: as §1, §2

M. avium = test: In vitro disk plate assay, M. avium; assay type: cell-based; conditions: medium D (Brain Heart Infusion Agar); 1 mg/ml in distilled water, 1/2 inch disk, 18 hours
Description: as §1, §2

[3] = i.p.-P388, first series, 5 mg/kg/day
[4] = i.p.-P388, first series, 10 mg/kg/day
[5] = i.p.-P388, first series, 20 mg/kg/day
[6] = i.p.-P388, first series, 40 mg/kg/day
[7] = i.p.-P388, second series, 5 mg/kg/day
[8] = i.p.-P388, second series, 10 mg/kg/day
[9] = i.p.-P388, second series, 20 mg/kg/day
[10] = i.p.-P388, second series, 40 mg/kg/day
[11] = L1210 cells in vitro, 50 percent inhibition of cell growth, read-out: L1210 ID50
[12] = L1210 cells in vitro, 90 percent inhibition of cell growth, read-out: L1210 ID90

With Nc1nc(Cl)cc(-c2ccccc2)n1 [Example 1, 4-chloro-6-phenyl-2-pyrimidinamine] the “inhibition of growth of L-1210 cells (in words)” value (“inhibition … (in words)” for short) [1] was “inhibit the growth of L-1210 mouse leukemia cells in vitro”, the zone of inhibition at 1000 µg/mL (P. vulgaris; 18 h, Proteus vulgaris, above-identified in vitro disk plate assay, medium not given) was 20 mm and the “antibacterial activity against the other test organisms (in words)” value (test organisms) was “No other antibacterial activity against the test organisms was observed”.

Nc1nc(-c2ccccc2)cc(N2CC2)n1 [Example 2, 4-(1-aziridyl)-6-phenyl-2-pyrimidinamine] was tested, and the “inhibition … (in words)” value [1] was “inhibit the growth of L-1210 mouse leukemia cells in vitro”, the “% ILS (% increase in life span of treated compared to control animals)” value (P388 leukemia; [3]) was 10% and the “Weight Change” value (P388 leukemia; [3]) was “+1.8 g/mouse”. For the same compound, the “% ILS (% increase in life span of treated compared to control animals)” value (P388 leukemia; [4]) was 11%, the “Weight Change” value (P388 leukemia; [4]) was “+2.1 g/mouse” and the “% ILS (% increase in life span of treated compared to control animals)” value (P388 leukemia; [5]) was 25%. For the same compound, the “Weight Change” value (P388 leukemia; [5]) was -0.7 g/mouse, the “% ILS (% increase in life span of treated compared to control animals)” value (P388 leukemia; [6]) was 47% and the “Weight Change” value (P388 leukemia; [6]) was -3.8 g/mouse. For the same compound, the “% ILS (% increase in life span of treated compared to control animals)” value (P388 leukemia; [7]) was 14%, the “Weight Change” value (P388 leukemia; [7]) was “+1.8 g/mouse” and the “% ILS (% increase in life span of treated compared to control animals)” value (P388 leukemia; [8]) was 11%. The “Weight Change” value (P388 leukemia; [8]) was “+2.1 g/mouse”, the “% ILS (% increase in life span of treated compared to control animals)” value (P388 leukemia; [9]) was 17% and the “Weight Change” value (P388 leukemia; [9]) was “+0.5 g/mouse”. The “% ILS (% increase in life span of treated compared to control animals)” value (P388 leukemia; [10]) was 26%, the “Weight Change” value (P388 leukemia; [10]) was -2.0 g/mouse and the “in vivo activity against P388 leukemia (in words)” value (P388 leukemia; mice) was “demonstrated activity in vivo against P388 and L-1210 leukemias in mice”. The “% ILS (% increase in life span of treated compared to control animals)” value (L-1210 leukemia; 5 mg/kg/day) was 0%, the “Weight Change” value (L-1210 leukemia; 5 mg/kg/day) was “+1.2 g/mouse” and the “% ILS (% increase in life span of treated compared to control animals)” value (L-1210 leukemia; 10 mg/kg/day) was 0%. The “Weight Change” value (L-1210 leukemia; 10 mg/kg/day) was “+1.5 g/mouse”, the “% ILS (% increase in life span of treated compared to control animals)” value (L-1210 leukemia; 20 mg/kg/day) was 9% and the “Weight Change” value (L-1210 leukemia; 20 mg/kg/day) was “+0.6 g/mouse”. For the same compound, the “% ILS (% increase in life span of treated compared to control animals)” value (L-1210 leukemia; 40 mg/kg/day) was 24%, the “Weight Change” value (L-1210 leukemia; 40 mg/kg/day) was -2.4 g/mouse and the “in vivo activity against L-1210 leukemia (in words)” value (L-1210 leukemia; mice) was “demonstrated activity in vivo against P388 and L-1210 leukemias in mice”. For the same compound, the “% ILS (% increase in life span of treated compared to control animals)” value (B-16 melanoma; 6.3 mg/kg/day) was 2%, the “Weight Change” value (B-16 melanoma; 6.3 mg/kg/day) was “+1.2 g/mouse” and the “% ILS (% increase in life span of treated compared to control animals)” value (B-16 melanoma; 12.5 mg/kg/day) was 4%. The “Weight Change” value (B-16 melanoma; 12.5 mg/kg/day) was “+0.3 g/mouse”, the “% ILS (% increase in life span of treated compared to control animals)” value (B-16 melanoma; 25 mg/kg/day) was 11% and the “Weight Change” value (B-16 melanoma; 25 mg/kg/day) was -0.5 g/mouse. The “% ILS (% increase in life span of treated compared to control animals)” value (B-16 melanoma; 50 mg/kg/day) was 7%, the “Weight Change” value (B-16 melanoma; 50 mg/kg/day) was -3.0 g/mouse and the “in vivo activity against B-16 melanoma (in words)” value (B-16 melanoma; mice) was “no in vivo activity in mice against B-16 melanoma”. For the same compound, the “Zone of Inhibition” value (E. coli; medium B (Nutrient Agar)) was 0 mm, the “Zone of Inhibition” value (E. coli; medium E (Synthetic Medium)) was 0 mm and the “Zone of Inhibition” value (S. schottmuelleri) was 0 mm. The “Zone of Inhibition” value (B. fragilis) was 23 mm, the “Zone of Inhibition” value (S. lutea; S. lutea+, medium B (Nutrient Agar)) was 0 mm and the “Zone of Inhibition” value (S. lutea; S. luteau, medium C (PenAssay Seed Agar)) was 0 mm. The “Zone of Inhibition” value (S. pastorianus) was 0 mm, the “Zone of Inhibition” value (P. vulgaris; medium B (Nutrient Agar), 1 mg/ml in distilled water, 1/2 inch disk, 18 hours) was 0 mm and the “Zone of Inhibition” value (Ps. aeruginosa) was 0 mm. For the same compound, the “Zone of Inhibition” value (S. aureus) was 0 mm, the “Zone of Inhibition” value [2] was 18 mm and the “Zone of Inhibition” value (K. pneumoniae) was 0 mm. For the same compound, the “Zone of Inhibition” value (S. pyogenes) was 21 mm and the “Zone of Inhibition” value (M. avium) was 0 mm.

For Nc1nc(-c2ccccc2)c(Br)c(N2CC2)n1 [Example 3, 4-(1-aziridyl)-5-bromo-6-phenyl-2-pyrimidinamine], the “inhibition … (in words)” value [1] was “inhibit the growth of L-1210 mouse leukemia cells in vitro”.

In the case of Nc1nc(Cl)c(F)c(-c2ccccc2)n1 [Example 4, 4-chloro-5-fluoro-6-phenyl-2-pyrimidinamine], the “inhibition … (in words)” value [1] is reported as “inhibit the growth of L-1210 mouse leukemia cells in vitro”.

With Nc1nc(NCCN2CC2)c(F)c(-c2ccccc2)n1 [Example 5, N'-[2-(1-aziridyl)ethyl]-5-fluoro-6-phenyl-2,4-pyrimidinediamine] the “inhibition … (in words)” value [1] was “inhibit the growth of L-1210 mouse leukemia cells in vitro”.

In the case of Nc1nc(Cl)c(Br)c(-c2ccccc2)n1 [Example 6, 5-bromo-4-chloro-6-phenyl-2-pyrimidinamine], the “inhibition … (in words)” value [1] is reported as “inhibit the growth of L-1210 mouse leukemia cells in vitro”.

In the case of Nc1nc(Cl)c(Cl)c(-c2ccccc2)n1 [Example 7, 4,5-dichloro-6-phenyl-2-pyrimidinamine], the “inhibition … (in words)” value [1] is reported as “inhibit the growth of L-1210 mouse leukemia cells in vitro”.

Nc1nc(Cl)c(I)c(-c2ccccc2)n1 [Example 8, 4-chloro-5-iodo-6-phenyl-2-pyrimidinamine] was tested, and the “inhibition … (in words)” value [1] was “inhibit the growth of L-1210 mouse leukemia cells in vitro”.

Nc1nc(-c2ccccc2)c(Br)c(N2CC2)n1 [drawing 5] was tested, and the IC50 ([1]; L1210, read-out: L1210 ID50) was 1.2 µg/mL (≈ 4.12 µM) and the IC90 ([1]; L1210, read-out: L1210 ID90) was 3.2 µg/mL (≈ 11 µM).

Nc1nc(NCCN2CC2)c(F)c(-c2ccccc2)n1 [drawing 6] gave an IC50 ([1]; L1210, read-out: L1210 ID50) of 0.78 µg/mL (≈ 2.85 µM) and an IC90 ([1]; L1210, read-out: L1210 ID90) of 2.1 µg/mL (≈ 7.68 µM).

Nc1nc(Cl)c(F)c(-c2ccccc2)n1 [drawing 7] gave an IC50 [1, 11] of 0.18 µg/mL (≈ 0.805 µM) and an IC90 [1, 12] of 0.55 µg/mL (≈ 2.46 µM).

Nc1nc(Cl)c(Cl)c(-c2ccccc2)n1 [drawing 8] was tested, and the IC50 [1, 11] was 0.91 µg/mL (≈ 3.79 µM) and the IC90 [1, 12] was 2.1 µg/mL (≈ 8.75 µM).

With Nc1nc(Cl)c(I)c(-c2ccccc2)n1 [drawing 9] the IC50 [1, 11] was 1.8 µg/mL (≈ 5.43 µM) and the IC90 [1, 12] was 3.9 µg/mL (≈ 11.8 µM).

Nc1nc(Cl)c(Br)c(-c2ccccc2)n1 [drawing 10] showed an IC50 [1, 11] of 0.64 µg/mL (≈ 2.25 µM) and an IC90 [1, 12] of 1.6 µg/mL (≈ 5.62 µM).

Compound Nc1nc(Cl)cc(-c2ccccc2)n1 [drawing 11] has an IC50 [1, 11] of 8.2 µg/mL (≈ 39.9 µM) and an IC90 [1, 12] of 19 µg/mL (≈ 92.4 µM).
